Reference: PubChem BioAssay (NCI)
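Protocol summary: plate cells (96-well), add compound at 5 concentrations, incubate 48 h, interpolate endpoints linearly. The concentration for full growth arrest is given as TGI.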

Experiments:
Assay in all cases: growth of human tumour cells (NCI), 48 h
786-0 renal = tested on: 786-0 renal
A498 renal = tested on: A498 renal
A549 NSCLC = tested on: A549 NSCLC
ACHN renal = tested on: ACHN renal
BT-549 breast = tested on: BT-549 breast
CCRF-CEM leukemia = tested on: CCRF-CEM leukemia
COLO 205 colon = tested on: COLO 205 colon
EKVX NSCLC = tested on: EKVX NSCLC
HCC-2998 colon = tested on: HCC-2998 colon
HCT-116 colon = tested on: HCT-116 colon
HCT-15 colon = tested on: HCT-15 colon
HL-60(TB) leukemia = tested on: HL-60(TB) leukemia
HOP-62 NSCLC = tested on: HOP-62 NSCLC
HS 578T breast = tested on: HS 578T breast
HT29 colon = tested on: HT29 colon
IGROV1 ovarian = tested on: IGROV1 ovarian
K-562 leukemia = tested on: K-562 leukemia
KM12 colon = tested on: KM12 colon
LOX IMVI melanoma = tested on: LOX IMVI melanoma
M14 melanoma = tested on: M14 melanoma
MALME-3M melanoma = tested on: MALME-3M melanoma
MCF7 breast = tested on: MCF7 breast
MDA-MB-231 breast = tested on: MDA-MB-231 breast
MDA-MB-435 = tested on: MDA-MB-435
MDA-N = tested on: MDA-N
MOLT-4 leukemia = tested on: MOLT-4 leukemia
NCI-H226 lung = tested on: NCI-H226 lung
NCI-H460 lung = tested on: NCI-H460 lung
NCI/ADR-RES ovarian = tested on: NCI/ADR-RES ovarian
OVCAR-3 ovarian = tested on: OVCAR-3 ovarian
OVCAR-4 ovarian = tested on: OVCAR-4 ovarian
OVCAR-8 ovarian = tested on: OVCAR-8 ovarian
PC-3 prostate = tested on: PC-3 prostate
RPMI-8226 leukemia = tested on: RPMI-8226 leukemia
RXF 393 renal = tested on: RXF 393 renal
SF-295 CNS = tested on: SF-295 CNS
SF-539 CNS = tested on: SF-539 CNS
SK-MEL-2 melanoma = tested on: SK-MEL-2 melanoma
SK-MEL-28 melanoma = tested on: SK-MEL-28 melanoma
SK-MEL-5 melanoma = tested on: SK-MEL-5 melanoma
SK-OV-3 ovarian = tested on: SK-OV-3 ovarian
SN12C renal = tested on: SN12C renal
SNB-19 CNS = tested on: SNB-19 CNS
SNB-75 CNS = tested on: SNB-75 CNS
SR leukemia = tested on: SR leukemia
SW-620 colon = tested on: SW-620 colon
T-47D breast = tested on: T-47D breast
TK-10 renal = tested on: TK-10 renal
U251 CNS = tested on: U251 CNS
UACC-257 melanoma = tested on: UACC-257 melanoma
UACC-62 melanoma = tested on: UACC-62 melanoma
CAKI-1 renal = tested on: CAKI-1 renal
DU-145 prostate = tested on: DU-145 prostate
HOP-92 NSCLC = tested on: HOP-92 NSCLC
NCI-H23 lung = tested on: NCI-H23 lung
NCI-H522 lung = tested on: NCI-H522 lung
SF-268 CNS = tested on: SF-268 CNS
UO-31 renal = tested on: UO-31 renal
OVCAR-5 ovarian = tested on: OVCAR-5 ovarian

Measured: TGI

COC(=O)Cn1cnc2c(Cl)nc(Nc3ccccc3)nc21
41.4 µM: LOX IMVI melanoma
84.7 µM: MOLT-4 leukemia
79.8 µM: MDA-MB-435
48.8 µM: SK-MEL-2 melanoma
> 100 µM: 786-0 renal | A498 renal | A549 NSCLC | ACHN renal | BT-549 breast | COLO 205 colon | HCT-116 colon | HL-60(TB) leukemia | HOP-62 NSCLC | HT29 colon | K-562 leukemia | KM12 colon | M14 melanoma | MALME-3M melanoma | MCF7 breast | MDA-MB-231 breast | MDA-N | NCI-H226 lung | NCI-H460 lung | NCI/ADR-RES ovarian | OVCAR-4 ovarian | PC-3 prostate | RPMI-8226 leukemia | RXF 393 renal | SF-295 CNS | SF-539 CNS | SK-MEL-28 melanoma | SK-MEL-5 melanoma | SK-OV-3 ovarian | SN12C renal | SNB-19 CNS | SNB-75 CNS | SR leukemia | SW-620 colon | T-47D breast | TK-10 renal | U251 CNS | UACC-257 melanoma
96.7 µM: CCRF-CEM leukemia
56.1 µM: IGROV1 ovarian
67.2 µM: UACC-62 melanoma
80.4 µM: HCT-15 colon
50.7 µM: OVCAR-3 ovarian
82.8 µM: HCC-2998 colon
66.7 µM: OVCAR-8 ovarian
54.1 µM: HS 578T breast
88 µM: EKVX NSCLC

CN1Cc2ccccc2/C=C\c2ccccc21
98.7 µM: HOP-92 NSCLC
> 100 µM: 786-0 renal | A498 renal | A549 NSCLC | ACHN renal | BT-549 breast | CAKI-1 renal | CCRF-CEM leukemia | COLO 205 colon | DU-145 prostate | HCC-2998 colon | HCT-116 colon | HCT-15 colon | HOP-62 NSCLC | HS 578T breast | HT29 colon | IGROV1 ovarian | KM12 colon | LOX IMVI melanoma | M14 melanoma | MALME-3M melanoma | MDA-MB-231 breast | MDA-MB-435 | MDA-N | NCI-H226 lung | NCI-H23 lung | NCI-H460 lung | NCI-H522 lung | NCI/ADR-RES ovarian | OVCAR-3 ovarian | OVCAR-4 ovarian | OVCAR-8 ovarian | PC-3 prostate | RXF 393 renal | SF-268 CNS | SF-295 CNS | SF-539 CNS | SK-MEL-28 melanoma | SK-MEL-5 melanoma | SK-OV-3 ovarian | SN12C renal | SNB-19 CNS | SNB-75 CNS | SW-620 colon | T-47D breast | TK-10 renal | U251 CNS | UACC-257 melanoma | UACC-62 melanoma | UO-31 renal
92.7 µM: EKVX NSCLC
68.7 µM: RPMI-8226 leukemia
67.9 µM: MCF7 breast
80.2 µM: SK-MEL-2 melanoma

O=C(O)/C=C\C(=O)Nn1c(Cc2ccc(Cl)cc2)n[nH]c1=O
> 100 µM: 786-0 renal | A498 renal | A549 NSCLC | BT-549 breast | CAKI-1 renal | CCRF-CEM leukemia | COLO 205 colon | DU-145 prostate | EKVX NSCLC | HCC-2998 colon | HCT-116 colon | HCT-15 colon | HL-60(TB) leukemia | HOP-62 NSCLC | HS 578T breast | HT29 colon | IGROV1 ovarian | K-562 leukemia | M14 melanoma | MALME-3M melanoma | MCF7 breast | MDA-MB-231 breast | MDA-MB-435 | MDA-N | MOLT-4 leukemia | NCI-H226 lung | NCI-H23 lung | NCI-H460 lung | NCI-H522 lung | NCI/ADR-RES ovarian | OVCAR-3 ovarian | OVCAR-4 ovarian | OVCAR-5 ovarian | OVCAR-8 ovarian | PC-3 prostate | RXF 393 renal | SF-268 CNS | SF-295 CNS | SF-539 CNS | SK-MEL-2 melanoma | SK-MEL-5 melanoma | SK-OV-3 ovarian | SN12C renal | SR leukemia | T-47D breast | TK-10 renal | U251 CNS | UACC-257 melanoma | UACC-62 melanoma

CCNc1cc2c3c(c1)CCN3CCC2
> 10 µM: 786-0 renal | A498 renal | A549 NSCLC | ACHN renal | CAKI-1 renal | CCRF-CEM leukemia | COLO 205 colon | DU-145 prostate | EKVX NSCLC | HCC-2998 colon | HCT-116 colon | HCT-15 colon | HL-60(TB) leukemia | HOP-62 NSCLC | HOP-92 NSCLC | HS 578T breast | HT29 colon | IGROV1 ovarian | KM12 colon | LOX IMVI melanoma | M14 melanoma | MALME-3M melanoma | MCF7 breast | MDA-MB-231 breast | MDA-MB-435 | MDA-N | MOLT-4 leukemia | NCI-H226 lung | NCI-H23 lung | NCI-H460 lung | NCI-H522 lung | NCI/ADR-RES ovarian | OVCAR-3 ovarian | OVCAR-4 ovarian | OVCAR-8 ovarian | PC-3 prostate | RPMI-8226 leukemia | RXF 393 renal | SF-268 CNS | SF-295 CNS | SF-539 CNS | SK-MEL-2 melanoma | SK-MEL-28 melanoma | SK-MEL-5 melanoma | SK-OV-3 ovarian | SN12C renal | SNB-19 CNS | SNB-75 CNS | SR leukemia | SW-620 colon | T-47D breast | TK-10 renal | U251 CNS | UACC-257 melanoma | UACC-62 melanoma | UO-31 renal
5.05 µM: K-562 leukemia
